Measured values taken from article PMC9351623 (Chem, 2022).

Experiments:
TrxR1 [1] = molecular target: T1, TrxR1 (Homo sapiens, UniProt Q16881); test: Cellular quantitative HTS; type: cell-based; details: for pIC50 comparison between the two vinylsulfones: despite ca. 1.1 LogP difference; for activity in the cellular RX1 screen: hits classed up to 20 μM
T1 sequence (Q16881 1-499 isoform Q16881-5): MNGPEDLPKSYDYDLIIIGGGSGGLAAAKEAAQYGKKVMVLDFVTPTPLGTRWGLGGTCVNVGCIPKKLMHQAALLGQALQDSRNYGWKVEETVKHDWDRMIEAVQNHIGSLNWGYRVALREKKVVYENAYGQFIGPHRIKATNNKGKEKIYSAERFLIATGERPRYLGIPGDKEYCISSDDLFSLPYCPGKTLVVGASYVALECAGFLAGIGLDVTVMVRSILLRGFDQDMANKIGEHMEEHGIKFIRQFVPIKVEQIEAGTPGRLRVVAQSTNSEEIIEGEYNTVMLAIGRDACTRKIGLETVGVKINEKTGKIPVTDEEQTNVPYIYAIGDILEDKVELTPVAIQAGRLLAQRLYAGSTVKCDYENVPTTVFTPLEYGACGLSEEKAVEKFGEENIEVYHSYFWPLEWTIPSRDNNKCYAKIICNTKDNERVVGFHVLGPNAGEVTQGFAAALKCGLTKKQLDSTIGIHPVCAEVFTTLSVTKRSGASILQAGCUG

TrxR1 [2] = molecular target: T1, TrxR1; details: cited from earlier work
TrxR = molecular target: T2, TrxR (Homo sapiens, UniProt Q16881); test: Cellular probe signal after chemical inhibition of TrxR; type: cell-based
T2 sequence (Q16881 1-499 isoform Q16881-5): T1 sequence (Q16881 1-499 isoform Q16881-5)

Cc1ccc(S(=O)(=O)/C=C/C#N)cc1 [BAY 11–7082]
pIC50 comparison between the two vinylsulfones (TrxR1 [1]): no change

CC(C)(C)c1ccc(S(=O)(=O)/C=C/C#N)cc1 [BAY 11–7085]
pIC50 comparison between the two vinylsulfones (TrxR1 [1]): no change

CN(N=O)c1cc(O)ccc1O [Dephostatin]
potency loss in cells (ratio of cell-free to cellular potency) (TrxR1 [1]; cellular RX1 qHTS versus cell-free qHTS of ref 67): > 10 fold

Oc1ccc2ccccc2c1SSc1c(O)ccc2ccccc12 [IPA-3]
activity in the cellular RX1 screen (TrxR1 [1]): active
activity in the enzymatic (cell-free) TrxR screen (TrxR1 [2]): inactivity

COc1ccc([N+](=O)[O-])c(S(=O)(=O)c2ccc(Cl)cc2)n1 [TRi-1]
effect of TrxR inhibitor on cellular RX1 signal (TrxR): efficiently suppressed

OC[C@H]1O[C@H]([S-])[C@H](O)[C@@H](O)[C@@H]1O.[Au+] [aurothioglucose]
pIC50 (potency) lower than its ester prodrug auranofin (TrxR1 [1]): 10 fold

C=CCN1CCc2c(cc(O)c(O)c2Cl)C(c2ccccc2)C1 (centres unmarked) [chloro-APB]
activity in the cellular RX1 screen (TrxR1 [1]): active
activity in the enzymatic (cell-free) TrxR screen (TrxR1 [2]): inactivity

O=c1c(O)c(-c2cc(O)c(O)c(O)c2)oc2cc(O)cc(O)c12 [myricetin]
apparent potency relative to the reference inhibitor TRi-1 (TrxR1 [1]): ≤ 3%

O=C1CSC(=S)N1 [rhodanine]
apparent potency relative to the reference inhibitor TRi-1 (TrxR1 [1]): ≤ 3%

CC(=O)c1c(O)c(C)c(O)c(Cc2c(O)c3c(c(C(=O)/C=C/c4ccccc4)c2O)OC(C)(C)C=C3)c1O [rottlerin]
apparent potency relative to the reference inhibitor TRi-1 (TrxR1 [1]): ≤ 3%

COC[C@H]1OC(=O)c2coc3c2[C@@]1(C)C1=C(C3=O)[C@@H]2CCC(=O)[C@@]2(C)C[C@H]1OC(C)=O [wortmannin]
activity in the cellular RX1 screen (TrxR1 [1]): inactive
activity in the enzymatic (cell-free) TrxR screen (TrxR1 [2]): activity
